Measured values from patent US7576135B2, “Diamine derivatives” (Daiichi Pharmaceutical Co., Ltd., priority 2002, dated 2009).
Structures can show the parent of a compound that is named as a salt.

biological target: T1, human FXa (Homo sapiens, UniProt P00742); experiment: Determination of human FXa-inhibiting effect (IC50 value), chromogenic substrate S-2222; type: biochemical; conditions: substrate S-2222, absorbance at 405 nm, room temperature
T1 construct: purchased Enzyme Research Labolatories, Inc
T1 sequence (P00742 235-488 limits assumed): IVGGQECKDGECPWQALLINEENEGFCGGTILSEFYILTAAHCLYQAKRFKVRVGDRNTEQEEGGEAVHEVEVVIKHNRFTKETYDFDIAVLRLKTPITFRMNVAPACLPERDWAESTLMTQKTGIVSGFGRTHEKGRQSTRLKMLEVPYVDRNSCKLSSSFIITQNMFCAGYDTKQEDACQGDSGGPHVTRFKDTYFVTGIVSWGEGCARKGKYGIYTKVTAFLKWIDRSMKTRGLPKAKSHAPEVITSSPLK
T1 sequence (P00742 41-179 partner limits assumed): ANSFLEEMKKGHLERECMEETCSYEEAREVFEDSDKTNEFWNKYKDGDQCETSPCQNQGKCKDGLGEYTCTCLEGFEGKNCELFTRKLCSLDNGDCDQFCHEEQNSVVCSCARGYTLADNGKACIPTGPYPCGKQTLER
Text: Determination of Human FXa-Inhibiting Effect (IC50 Value):
As a control, Tris buffer was used in place of the test compound.

Row | IC50 | SMILES
1 | 1.1 nM | CN1CCc2nc(C(=O)N[C@@H]3C[C@@H](n4cnnc4)CC[C@@H]3NC(=O)C(=O)Nc3ccc(Cl)cn3)sc2C1 [Ex. 394, N^1-(5-chloropyridin-2-yl)-N^2-(1S,2R,4S)-2-{[(5-methyl-4,5,6,7-tetrahydrothiazolo[5,4-c]pyridin-2-yl)carbonyl]amino}-4-(4H-1,2,4-triazol-4-yl)cyclohexyl)ethanediamide hydrochloride]
2 | 1.1 nM | C#Cc1ccc(NC(=O)C(=O)N[C@H]2CC[C@H](c3nnc(C)o3)C[C@H]2NC(=O)c2nc3c(s2)CN(C)CC3)nc1 [Ex. 402, N^1-(5-ethynylpyridin-2-yl)-N^2-((1S,2R,4S)-4-(5-methyl-1,3,4-oxadiazol-2-yl)-2-{[(5-methyl-4,5,6,7-tetrahydrothiazolo[5,4-c]pyridin-2-yl)carbonyl]amino}cyclohexyl)ethanediamide]
3 | 1.1 nM | Cc1nnc([C@H]2CC[C@H](NC(=O)C(=O)Nc3ccc(Br)cn3)[C@H](NC(=O)c3nc4c(s3)CN(C)CC4)C2)o1 [Ex. 396, N^1-(5-bromo-2-pyridinyl)-N^2-((1S,2R,4S)-4-(5-methyl-1,3,4-oxadiazol-2-yl)-2-{[(5-methyl-4,5,6,7-tetrahydrothiazolo[5,4-c]pyridin-2-yl)carbonyl]amino}cyclohexyl)ethanediamide hydrochloride]
4 | 1 nM | Cc1nnc([C@H]2CC[C@H](NC(=O)C(=O)Nc3ccc(Cl)cn3)[C@H](NC(=O)c3nc4c(s3)CN(C)CC4)C2)o1 [Ex. 384, N^1-(5-chloropyridin-2-yl)-N^2-[(1S,2R,4S)-2-{[(5-methyl-4,5,6,7-tetrahydrothiazolo[5,4-c]pyridin-2-yl)carbonyl]amino}-4-(5-methyl-1,3,4-oxadiazol-2-yl)cyclohexyl]ethanediamide hydrochloride]
5 | 1.3 nM | CN1CCc2nc(C(=O)N[C@@H]3C[C@@H](c4nnco4)CC[C@@H]3NC(=O)C(=O)Nc3ccc(Cl)cn3)sc2C1 [Ex. 385, N^1-(5-chloropyridin-2-yl)-N^2-[(1S,2R,4S)-2-{[(5-methyl-4,5,6,7-tetrahydrothiazolo[5,4-c]pyridin-2-yl)carbonyl]amino}-4-(1,3,4-oxadiazol-2-yl)cyclohexyl]ethanediamide]

The remaining lines, values behind:

Row | SMILES | IC50
6 | CN1CCc2nc(C(=O)N[C@@H]3C[C@@H](n4cccc4)CC[C@@H]3NC(=O)C(=O)Nc3ccc(Cl)cn3)sc2C1 [Ex. 413, N^1-(5-chloropyridin-2-yl)-N^2-[(1S,2R,4S)-2-{[(5-methyl-4,5,6,7-tetrahydrothiazolo[5,4-c]pyridin-2-yl)carbonyl]amino}-4-(1H-pyrrol-1-yl)cyclohexyl]ethanediamide hydrochloride] | 1 nM
7 | Cc1nnc([C@H]2CC[C@H](NC(=O)C(=O)Nc3ccc(Cl)s3)[C@H](NC(=O)c3nc4c(s3)CN(C)CC4)C2)o1 [Ex. 395, N^1-(5-chloro-2-thienyl)-N^2-((1S,2R,4S)-4-(5-methyl-1,3,4-oxadiazol-2-yl)-2-{[(5-methyl-4,5,6,7-tetrahydrothiazolo[5,4-c]pyridin-2-yl)carbonyl]amino}cyclohexyl)ethanediamide citric acid salt] | 0.72 nM

test system: not given; experiment: not given; conditions: not given

Row | SMILES | melting point
8 | CN1CCc2nc(C(=O)N[C@@H]3CCS(=O)(=O)C[C@H]3NC(=O)c3cc4cc(F)ccc4[nH]3)sc2C1 (relative stereo) (as salt: hydrochloride) [Example 183, N-((3R*,4R*)-3-{[(5-Fluoroindol-2-yl)carbonyl]amino}-1,1-dioxohexahydro-1-thiopyran-4-yl)-5-methyl-4,5,6,7-tetrahydrothiazolo[5,4-c]pyridine-2-carboxamide hydrochloride] | 244 to 249 °C
9 | CN1CCc2nc(C(=O)N[C@@H]3C[C@@H](C(=O)N(C)C)CC[C@@H]3NC(=S)C(=O)Nc3ccc(F)cn3)sc2C1 (hydrate or solvate) | 176 to 179 °C (dec.)
